This is an account of results in US9913838B2, “Methods of treating cancer using compositions comprising perillyl alcohol derivative” (NEONC TECHNOLOGIES INC., priority 2010, dated 2018).

For one data set, the system named is MDA-MB-468. The data set can be described thus: Colony formation assay, MDA-MB-468. As to conditions: for IC50: Homo sapiens, MDA-MB-468, 48 h, read-out: IC50 (concentration required to decrease colony formation by 50%). The method, then: (§1) Depending on the cell line (and plating efficiency), 200-350 cells were seeded into each well of a 6-well plate. […] Thereafter, the drugs were removed, fresh growth medium was added, and the cells were kept in culture undisturbed for 12-16 days, during which time the surviving cells spawned colonies of descendants. Colonies (defined as groups of >50 cells) were visualized by staining for 4 hours with 1% methylene blue (in methanol), and then were counted.
(§2) In the case of O6-BG treatment, cells were pretreated with 10 μM O6-BG for one hour before addition of TMZ or TMZ-POH. After 24 hours, another 10 μM O6-BG was added to the medium. Another 24 hours later, drug-laced medium was removed, and fresh medium without drugs was added. Thereafter, cells remained undisturbed until staining with methylene blue.
The cytotoxic potency of TMZ-POH, was analyzed by colony formation assay (CFA) in a variety of human breast cancer cell lines and compared to the cytotoxicity of TMZ. We used estrogen receptor positive cells MCF7 and T47D, the triple-negative lines MDA-MB-231, MDA-MB-468, and HCC-1937, and a brain-seeking variant of the 231 cell line, MDA-MB-231-br.

The test system of a further data set is MGMT. The data set can be described thus: Western blot of MGMT protein levels in MDA-MB-468 cells. As to conditions: in words. Format: cell-based, human. Here is the method:
In FIG. 21C, MDA-MB-468 cells were treated with the indicated concentrations of TMZ-POH, TMZ, or O6-BG for 17 hours before harvest of cellular lysates. vh.=cells treated with vehicle only.
Total cell lysates were analyzed by Western blot analysis as described in P. Pyrko et al. Downregulation of survivin expression and concomitant induction of apoptosis by celecoxib and its non-cyclooxygenase-2-inhibitory analog, dimethyl-celecoxib (DMC), in tumor cells in vitro and in vivo. Mol Cancer 5 (2006) 19. The primary antibodies were purchased from Cell Signaling Technology (Beverly, Mass.) or Santa Cruz Biotechnology, Inc. (Santa Cruz, Calif.) and used according to the manufacturers' recommendations. All immunoblots were repeated at least once to confirm the results.
The major cytotoxic DNA lesion set by TMZ is methylation of O6-guanine, and it is well known that removal of this methyl group by MGMT leads to rapid degradation of the DNA repair protein.

The next data set relates to U87 human glioma cells. The data set can be described thus: MTT cytotoxicity assay, U87 glioma cells. As to conditions: U87; result in words. The source says:
In vitro efficacy of the present composition can be determined using methods well known in the art. For example, the cytoxicity of the present monoterpene (or sesquiterpene) and/or the therapeutic agents may be studied by MTT [3-(4,5-dimethylthiazol-2-yl)-2,5-diphenyl tetrazolium bromide] cytotoxicity assay. MTT assay is based on the principle of uptake of MTT, a tetrazolium salt, by metabolically active cells where it is metabolized into a blue colored formazon product, which can be read spectrometrically. J. of Immunological Methods 65: 55 63, 1983. The cytoxicity of the present monoterpene (or sesquiterpene) derivative and/or the therapeutic agents may be studied by colony formation assay. Functional assays for inhibition of VEGF secretion and IL-8 secretion may be performed via ELISA. Cell cycle block by the present monoterpene (or sesquiterpene) derivative and/or the therapeutic agents may be studied by standard propidium iodide (PI) staining and flow cytometry. Invasion inhibition may be studied by Boyden chambers. In this assay a layer of reconstituted basement membrane, Matrigel, is coated onto chemotaxis filters and acts as a barrier to the migration of cells in the Boyden chambers. Only cells with invasive capacity can cross the Matrigel barrier. Other assays include, but are not limited to cell viability assays, apoptosis assays, and morphological assays.
First cytotoxicity assays were carried out after cells were treated with dimethyl-celecoxib (DMC) alone.
Then U87, A172 and U251 cells were treated with dimethyl celecoxib bisPOH carbamate (POH−DMC) (e.g., synthesized by the method in Example 1), and the MTT cytotoxicity assays performed (FIG. 2).
First cytotoxicity assays were carried out after cells were treated with temozolomide (TMZ) alone, the standard alkylating agent used in the treatment of malignant gliomas.
Then TMZ-resistant glioma cell lines U87, A172 and U251 cells were treated with TMZ-POH (e.g., synthesized by the method in Example 3).
To compare the cytotoxicity of Rolipram POH Carbamate (POH-Rolipram) (e.g., synthesized by the method in Example 5) with rolipram, […] inducing differentiation and apoptosis in glioma cells, A172, U87, U251 and LN229 human glioma cells were treated with either POH-Rolipram or rolipram for 48 hours.
(In general: Tetrazolium assays rely on reduction of a dye to a coloured formazan, in cell work by metabolically active cells.)

The test system of a further data set is 231-MGMT-1. The data set can be described thus: Colony formation assay, MGMT-transfected 231-MGMT-1. The data set is classed as cell-based, human. As to conditions: for IC50: Homo sapiens, 48 h, read-out: IC50 (concentration required to decrease colony formation by 50%). The method, then: as §1, §2
MDA-MB-231 cells were co-transfected in 6-well plates with the use of Lipofectamine 2000 (Invitrogen, Carlsbad, Calif.) according to manufacturer's instructions. 2 μg pSV2MGMT (containing the human MGMT cDNA) was combined with 0.2 μg pSV2neo (containing the neomycin gene for selection of cells in G418). Both plasmids were provided by Bernd Kaina (Mainz, Germany). Individual clones of transfected cells were selected in medium containing 750 μg/mL G418 and propagated in 250 μg/mL G418. G418 was obtained as G418 disulfate salt from Sigma-Aldrich and dissolved in PBS at 75 mg/mL. Selection medium was removed from cells several days before experimental drug treatment.
To investigate the latter, we stably transfected MGMT-negative MDA-MB-231 cells with MGMT cDNA and isolated individual clones. […] Both clones were treated with increasing concentrations of TMZ-POH and TMZ and analyzed by CFA.

`Cn1nnc2c(C(N)=O)ncn2c1=O` [TMZ, temozolomide, reference compound]: the values for the IC50 in the data set on MDA-MB-468 and with 231-MGMT-1 were 195 µM and 202 µM, respectively. The MGMT protein levels entry with MGMT (MDA-MB-468, 50 μM, 17 hours) is “no effect”. In addition, in the data set on U87 human glioma cells, the “cytotoxicity (MTT assay)” value is “minimal cytotoxicity”.

Turning to `C=C(C)[C@@H]1CC=C(COC(=O)NC(=O)c2ncn3c(=O)n(C)nnc23)CC1` [TMZ-POH], the IC50 in the data set on MDA-MB-468 stood at 31 µM; in the data set on 231-MGMT-1 it was 27 µM. For the same compound, the “Differential (−fold)” value in the data set with MDA-MB-468 (fold increase in potency of TMZ-POH compared to TMZ, MDA-MB-468) is listed as 6.3 −fold; with 231-MGMT-1 (fold increase in potency of TMZ-POH compared to TMZ, 231-MGMT-1), 7.5 −fold. In addition, in the data set on MDA-MB-468 (low micromolar concentrations, 48 hours, in words), the “colony formation (CFA)” value is reported as “prevented colony formation”. For the same compound, the MGMT protein levels result with MGMT (MDA-MB-468, 50 μM, 17 hours) was “significant decrease”; in the data set with MGMT (MDA-MB-468, 17 hours), “affects MGMT levels more potently than TMZ”. Besides, the “cytotoxicity (MTT assay)” value in the data set with U87 human glioma cells was “substantially higher kill rates”.
